Structures can show the parent of a compound that is named as a salt.
What was measured:
Type in all cases: biochemical
Human Factor XIa = Human Factor XIa (Homo sapiens (Human), UniProt P03951); experiment: Factor XIa enzyme activity, chromogenic substrate S-2366; settings: purified human Factor XIa 0.1 U/mL, 300 μM S-2366, pH7.4; read-out: In vitro FXIa inhibitory activity IC50
Experimental: (§1) Inhibitory activities of compounds of the present invention against factor XIa, Xa, XIIa, IXa, VIIa, plasma kallikrein or thrombin were evaluated using appropriate purified proteases and synthetic substrates. The rate of hydrolysis of the chromogenic substrate by the relevant protease was continuously measured at 405 nm. Inhibitory activity against each enzyme was calculated as % inhibition using the equation described below. % Inhibition=[[(rate without compound)−(rate with compound)]/(rate without compound)]×100%. Each half maximal inhibitory concentration (IC50) value was determined by plotting the concentration of compound of the invention against the % inhibition. (1-1) Factor XIa Enzyme Activity
Human Factor XIa (Haematologic Technologies Inc.) activity was measured at an enzyme concentration of 0.1 U/mL in 150 mM NaCl, 5 mM KCl, 1 mg/mL PEG6000, 50 mM HEPES-NaOH (pH7.4) with 300 μM S-2366 (pyroGlu-Pro-Arg-pNA, Chromogenix).

human thrombin = human thrombin (Homo sapiens (Human), UniProt P00734); experiment: Thrombin enzyme activity, chromogenic substrate S-2366; settings: human thrombin 0.12 U/mL, 300 μM S-2366, pH7.4; read-out: In vitro Thrombin inhibitory activity IC50
Experimental: as §1
(§2) Human Factor Xa (American Diagnostica Inc.) and human thrombin (Sigma) activities were measured at the enzyme concentrations of 0.18 U/mL and 0.12 U/mL, respectively in the same buffer containing 150 mM NaCl, 2 mg/mL PEG6000, 50 mM Tris-HCl (pH7.4), except that the reactions were started with 300 μM S-2222 ([…], Chromogenix) and 300 μM S-2366, respectively.

Human Factor Xa = Human Factor Xa (Homo sapiens (Human), UniProt P00742); experiment: Factor Xa enzyme activity, chromogenic substrate S-2222; settings: human Factor Xa 0.18 U/mL, 300 μM S-2222, pH7.4; read-out: In vitro FXa inhibitory activity IC50
Experimental: as §1, §2

Human Factor XIa, sequence (P03951 388-625): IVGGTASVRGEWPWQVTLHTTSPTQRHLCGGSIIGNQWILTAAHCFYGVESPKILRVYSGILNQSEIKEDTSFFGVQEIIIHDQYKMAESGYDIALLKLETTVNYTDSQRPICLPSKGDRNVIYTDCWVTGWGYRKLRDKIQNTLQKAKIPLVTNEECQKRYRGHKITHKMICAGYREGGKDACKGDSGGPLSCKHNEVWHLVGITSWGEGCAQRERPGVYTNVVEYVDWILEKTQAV
Human Factor XIa, sequence (P03951 19-387 partner): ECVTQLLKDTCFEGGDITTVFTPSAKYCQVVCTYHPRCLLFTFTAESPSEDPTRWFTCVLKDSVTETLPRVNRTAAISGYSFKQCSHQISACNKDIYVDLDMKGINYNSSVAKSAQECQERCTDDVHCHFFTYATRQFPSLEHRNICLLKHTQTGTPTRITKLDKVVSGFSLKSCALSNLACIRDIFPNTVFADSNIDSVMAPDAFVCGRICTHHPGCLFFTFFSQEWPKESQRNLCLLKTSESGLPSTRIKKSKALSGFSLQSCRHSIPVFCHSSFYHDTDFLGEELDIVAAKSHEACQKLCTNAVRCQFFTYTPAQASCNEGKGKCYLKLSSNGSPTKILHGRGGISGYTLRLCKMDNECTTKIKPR
Human Factor Xa, sequence (P00742 235-488): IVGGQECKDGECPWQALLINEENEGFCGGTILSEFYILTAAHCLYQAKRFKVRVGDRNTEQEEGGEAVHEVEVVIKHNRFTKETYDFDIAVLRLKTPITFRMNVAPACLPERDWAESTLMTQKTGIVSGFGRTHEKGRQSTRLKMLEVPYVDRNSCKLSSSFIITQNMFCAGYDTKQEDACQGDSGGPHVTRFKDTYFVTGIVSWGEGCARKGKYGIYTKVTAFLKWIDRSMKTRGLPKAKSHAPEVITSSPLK
Human Factor Xa, sequence (P00742 41-179 partner): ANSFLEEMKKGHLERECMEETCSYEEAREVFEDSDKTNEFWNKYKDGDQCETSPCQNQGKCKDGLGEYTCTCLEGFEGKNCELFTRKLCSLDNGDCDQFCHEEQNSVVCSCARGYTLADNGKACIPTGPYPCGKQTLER

Structure (SMILES): COC(=O)Nc1ccc(-c2[nH]c([C@@H]3C[C@H](N4CCN(S(C)(=O)=O)CC4)CN3C(=O)C3CCN(C(=N)N)CC3)nc2Cl)cc1 [Example 99, methyl [4-(2-{(2S,4S)-1-(1-carbamimidoyl-4-piperidinyl)carbonyl]-4-[4-(methylsulfonyl)-1-piperazinyl-2-pyrrolidinyl}-4-chloro-1H-imidazol-5-yl)phenyl]carbamate trihydrochloride]
- IC50 (Human Factor XIa): 0.0012 µM
- IC50 (human thrombin): 84 µM
- IC50 (Human Factor Xa): > 100 µM
